Values joined by “and” are separate entries in the source; they are usually repeats but may differ in a detail not shown here. Equal values may be shown once. Read-outs that look alike come from different tables or passages of the source. Marks after values point to notes of the source that are not given here.
Assays:
[1] = Solubility, storage and stability of 4SP65 and 1LP65; type: physicochemical
Experimental: prepared for use and that was not altered by the solvent used, heating up to 37 °C for up to 3 days, and shaking or rocking for up to 3 days at RT or 4°C. For experiment, an aliquot of drug was first mixed in medium, the solvent was removed and saved, and gel pieces were recovered, dried on a vacuum pump, […]
The difference in the starting weight of drug placed into solvent minus the weight of the residue after drying on a vacuum pump was considered to represent the amount of drug that went into solution. The amount of drug that was dissolved at a given time ranged from 40 to 61%, averaging 50.7 ± 8.1% (SD). The weight of the 4SP65 in solution was then used for diluting the drug to concentrations of 200 or 400 µM in supplemented RPMI or DMEM/F12 medium for routine treatment of cells. The dried residue was not used in the in vitro drug efficacy studies. The formation of a gel in the aqueous solvents tested was unexpected since […]
few free thiols in polymer arms of the PEG scaffold for cross-linking reactions to occur. However, unintended topical entanglements between polymer chains of multi-arm PEG-thiol molecules without disulfide formation have been reported (Tang and Bradley 2014 24860800). Aliquots of 4SP65 dissolved in FBS enriched medium has remained stable for >6 months while remnants of the original viscous polymer have maintained stability without any apparent loss of activity when stored for 60 […]
However, the bulk of the product was dissolved at 40 mM in DMSO and stored in aliquots at −80°C for future use once by further dilution in DMSO and then final dilution in medium for treatment of normal human epithelium and human cancer cell lines at working solutions of 4 mM or 400 µM drug. 1LP65 has maintained stability for six months in frozen aliquots but should be stable in DMSO at −80°C for two to three years based upon recommended storage conditions for cystamine dihydrochloride (Selleck Chemical product information), an analogous 225 Da compound with a disulfide bond and amine groups like 1LP65. […]

[2] = system: human cancer cell lines; experiment: cells
Experimental: (§1) The percentage of growth inhibition was calculated as follows: […]

[3] = system: Malignant pleural mesothelioma PPMMill cells; experiment: cells; details: for Fold increase in efficacy: drug alone ÷ drug in 4SP65-DDP combination
Experimental: as §1

[4] = system: Ovary SKOV3 cells; experiment: cells; details: for Fold increase in efficacy: drug alone ÷ drug in 4SP65-DDP combination
Experimental: as §1

[5] = system: Pancreas PANC-1 cells; experiment: cells
Experimental: as §1

[6] = system: Mammary gland MDA-MB-231 cells; experiment: CyQUANT-NF proliferation assay, 48-h drug treatment; type: cell-based
Experimental: Since the BRG prodrugs are composed of WR1065 as one of the major constituents, assays were conducted to determine if factors reported to modulate the activity of amino acid and polyamine plasma membrane transport systems impacted the efficacy of 4SP65 or 1LP65 in selected cancer cell lines. HL60 cells were exposed to 4SP65 with up to 0.5 mM NaCl, MBA-MD-231 cells were tested in the presence and absence of medium supplemented with estradiol plus insulin (in the BulletKit™ for growth supplements for NHMECs), HCC38 cells were exposed to 4SP65 with and without 10 µM insulin added to the growth medium, and multiple cells lines were pretreated for 24 h with 1 mM DFMO prior to starting exposures to 4SP65.
as §1

[7] = system: NCI-H1437 NSCLC cells
Experimental: as §1

[8] = aqueous solvents/medium, remainder formed a gel
[9] = 4SP65: average across 15 cell lines, 48 h
[10] = 15 cell lines for 4SP65, 11 for 1LP65
[11] = average of A549, H460, PPMMill, LNCaP
[12] = average of HCC38, MDA-MB-231, H1975, HMESO1, PANC1, DU145, PC3
[13] = averages of dose-response metrics across the panel
[14] = averages over 11 cell lines, minimal fold differences
[15] = 48-h treatment, amifostine ND = not definable up to 500 µM
[16] = drug alone, 48 h, 4SP65/cisplatin study
[17] = drug alone, 48 h, 4SP65/cisplatin study, ND = not definable, highest concentration in parentheses

Substance: 4-star-PEG-S-S-WR1065 [4SP65]
- highest level testable based upon maximum solubility in aqueous medium [1]: 150 µM
- storage time with maintained stability without apparent loss of activity [1]: 60 months
- time remained stable ([1]; aliquots dissolved in FBS enriched medium): > 6 months
- amount of drug dissolved at a given time, average (SD) [1, 8]: 50.7 ± 8.1%
- amount of drug dissolved at a given time, range [1, 8]: 40 to 61%
- fold more potent than 1LP65, average [2]: 10.4 fold
- fold increases in cytostatic and cytolytic activities, range ([2]; 4SP65-cisplatin combined, H460 and SKOV3 cells): 1.3- to 36 fold
- gains of effect, range (not significant) ([2]; 4SP65-cisplatin combined, HMESO1 and PPMMill cells): 1.1- to 1.3 fold
- LC99, All cell lines [2, 9]: 11.2 ± 1.2 µM
- TGI, All cell lines [2, 9]: 6.8 ± 1.1 µM
- LC99, range for individual cell lines [2, 10]: 3.0 to 21.1 µM
- TGI, range for individual cell lines [2, 10]: 2.0 to 16.3 µM
- fold more effective as a cytostatic agent than PRIMA-1 or APR-246 ([2]; TP53 mutant cells): 2.3- to 30 fold
- fold more effective as a cytostatic agent than PRIMA-1 or APR-246 ([2]; TP53 wild-type cells): 4.3- to 21 fold
- LC99, TP53 Wild-Type [2, 11]: 14.4 ± 1.6 µM
- TGI, TP53 Wild-Type [2, 11]: 9.5 ± 2.0 µM
- LC99, TP53 Mutant [2, 12]: 9.1 ± 0.9 µM
- TGI, TP53 Mutant [2, 12]: 4.4 ± 0.9 µM
- fold more potent than amifostine as a cytostatic agent, average [2, 13]: 55 fold
- fold more potent than amifostine as a cytostatic agent, range [2, 13]: 45- to 63 fold
- Fold difference in drug potency 4SP65 vs 1LP65: GI50 ([2]; averages over 11 cell lines): 10.2
- Fold difference in drug potency 4SP65 vs 1LP65: IC50 ([2]; averages over 11 cell lines): 9.7
- Fold difference in drug potency 4SP65 vs 1LP65: LC50 ([2]; averages over 11 cell lines): 10.4
- Fold difference in drug potency 4SP65 vs 1LP65: LC99 ([2]; averages over 11 cell lines): 11.3
- Fold difference in drug potency 4SP65 vs 1LP65: TGI ([2]; averages over 11 cell lines): 10.2
- Fold difference in drug potency vs amifostine: GI50 [2, 14]: > 45
- Fold difference in drug potency vs amifostine: IC50 [2, 14]: > 57
- Fold difference in drug potency vs amifostine: TGI [2, 14]: > 63
- fold more potent than 1LP65, range ([2]; depending on the dose-response metric): 9.7- to 11.3 fold
- fold greater effect than amifostine ([2]; four cell lines where amifostine GI50 <100 µM): 38 fold
- GI50 ([2]; read-out: GI50, All cell lines, 4SP65: average across 15 cell lines, 48 h): 4.1 ± 0.8 µM
- GI50 ([2]; read-out: GI50, TP53 Mutant, average of HCC38, MDA-MB-231, H1975, HMESO1, PANC1, DU145, PC3): 2.6 ± 0.8 µM
- GI50 ([2]; read-out: GI50, TP53 Wild-Type, average of A549, H460, PPMMill, LNCaP): 5.8 ± 1.4 µM
- GI50 ([2]; read-out: GI50, range for individual cell lines, 15 cell lines for 4SP65, 11 for 1LP65): 0.7 to 10.6 µM
- GI50 ([2]; read-out: GI50 range, seven cell lines compared with NCI data (Table 5)): 0.7 to 9.4 µM
- GI50 ([2]; read-out: average GI50, four cell lines where amifostine GI50 <100 µM): 1.7 µM
- fold potency greater than predicted by four versus one WR1065/molecule ([2]; versus 1LP65): ~ 2.5 fold
- GI50 [3, 15]: 6 ± 1.7 µM
- IC50 [3, 15]: 7.4 ± 2 µM
- LC99 [3, 15]: 14.8 ± 2.9 µM
- TGI [3, 15]: 10.6 ± 3.0 µM
- Fold increase in efficacy ([3]; at GI50): 1.3 (NS) fold
- Fold increase in efficacy ([3]; at IC50): 1.3 (NS) fold
- Fold increase in efficacy ([3]; at LC50, GoE = gain of effect): 1.3 (NS) fold
- Fold increase in efficacy ([3]; at LC99, GoE = gain of effect): 1.3 (NS) fold
- Fold increase in efficacy ([3]; at TGI, GoE = gain of effect): 1.3 (NS) fold
- GI50 [3, 16]: 8.4 ± 1.5 µM
- IC50 [3, 16]: 10 ± 1.9 µM
- LC99 [3, 17]: 17.6 ± 3.5 µM
- TGI [3, 17]: 14.1 ± 3.3 µM
- GI50 [4, 15]: 4 ± 0.8 µM
- IC50 [4, 15]: 5.1 ± 0.9 µM
- LC99 [4, 15]: 10.5 ± 1.5 µM
- TGI [4, 15]: 6.8 ± 0.9 µM and 6.8 µM
- fold more effective as a cytostatic agent than PRIMA-1 or APR-246 ([4]; TP53-null SKOV3 cells): 3.3- to 16 fold
- Dose reduction value 1LP65 ÷ 4SP65 ([4]; at GI50): 10 fold
- Dose reduction value AMF ÷ 4SP65 ([4]; at GI50): 20 fold
- Dose reduction value 1LP65 ÷ 4SP65 ([4]; at IC50): 8.9 fold
- Dose reduction value AMF ÷ 4SP65 ([4]; at IC50): 58 fold
- Dose reduction value 1LP65 ÷ 4SP65 ([4]; at LC50): 7.5 fold
- Dose reduction value 1LP65 ÷ 4SP65 ([4]; at LC99): 9.4 fold
- Dose reduction value 1LP65 ÷ 4SP65 ([4]; at TGI): 7.4 fold
- Fold increase in efficacy ([4]; at GI50): 1.5** fold
- Fold increase in efficacy ([4]; at IC50): 1.8** fold
- Fold increase in efficacy ([4]; at LC50, GoE = gain of effect): 1.3** fold
- Fold increase in efficacy ([4]; at LC99, GoE = gain of effect): 1.3* fold
- Fold increase in efficacy ([4]; at TGI, GoE = gain of effect): 1.5* fold
- GI50 [4, 16]: 4.3 ± 1 µM
- IC50 [4, 16]: 5.2 ± 1 µM
- LC99 [4, 17]: 10.0 ± 0.8 µM
- TGI [4, 17]: 7.3 ± 0.8 µM
- CC50 [5]: 5 ± 0.3 µM
- GI50 [5, 15]: 2.8 ± 0.6 µM
- IC50 [5, 15]: 3.7 ± 0.6 µM
- LC99 [5, 15]: 7.0 ± 0.5 µM
- TGI [5, 15]: 4.0 ± 0.4 µM
- Dose reduction value AMF ÷ 4SP65 ([5]; at GI50): 39 fold
- CC50 [6]: 9.2 ± 1.2 µM
- IC50 [6, 15]: 4.7 ± 0.9 µM
- LC99 [6, 15]: 11.0 ± 1.8 µM
- TGI [6, 15]: 6.6 ± 1.0 µM and 6.6 µM
- selectivity index ([6]; IC50 in NHMECs ÷ IC50 in MDA-MB-231, average): > 26
- Dose reduction value 1LP65 ÷ 4SP65 ([6]; at GI50): 26 fold
- Dose reduction value 1LP65 ÷ 4SP65 ([6]; at IC50): 15 fold
- Dose reduction value 1LP65 ÷ 4SP65 ([6]; at LC50): 15 fold
- Dose reduction value 1LP65 ÷ 4SP65 ([6]; at LC99): 14 fold
- Dose reduction value 1LP65 ÷ 4SP65 ([6]; at TGI): 21 fold
- fold increase in drug efficacy at the TGI level with hormones ([6]; insulin plus estradiol): ~4 fold
- TGI ([6]; with insulin plus estradiol, 48 h): 1.2 µM
- TGI ([6]; without hormones, 48 h (pilot experiment)): 4.6 µM
- CC50 [7]: 19.6 ± 0.7 µM
- GI50 [7, 15]: 10.6 ± 2 µM
- IC50 [7, 15]: 12.5 ± 2.6 µM
- LC99 [7, 15]: 21.1 ± 0.2 µM
- TGI [7, 15]: 16.3 ± 1.9 µM
- Dose reduction value 1LP65 ÷ 4SP65 ([7]; at GI50): 6.5 fold
- Dose reduction value 1LP65 ÷ 4SP65 ([7]; at IC50): 6.0 fold
- Dose reduction value 1LP65 ÷ 4SP65 ([7]; at LC50): 8.0 fold
- Dose reduction value 1LP65 ÷ 4SP65 ([7]; at LC99): 11 fold
- Dose reduction value 1LP65 ÷ 4SP65 ([7]; at TGI): 6.3 fold
